# Results: patent publication US20130072415A1, “DETERGENT COMPOSITIONS COMPRISING […] BLEND RATIOS of ISOPRENOID-BASED SURFACTANTS” (The Procter & Gamble Company, priority 2011, published 2013)
# Experiment: Dynamic Interfacial Tension (DIFT) analysis, ascending canola oil drop in aqueous detergent phase
# Type: physicochemical
# Details: 100 ppm surfactant, 34 ppm Calcium/Magnesium water hardness (3:1), 22° C., pH 8-8.5
# Method: The surfactant systems in Table 3 are analyzed via DIFT method. Ingredients listed are in ppm concentration as would be common in a detergent wash water solution. Analysis conditions are in water of 103 ppm Calcium/Magnesium water hardness level (3:1 Calcium:Magnesium), 21° C., pH 8-8.5. • Formula E contains a commercial branched Neodol® 67 AS surfactant. • Formula F contains 90A:10B AS of the present invention substituted for branched Neodol® 67 AS surfactant. • Formulas G and H are common detergent surfactant mixtures containing no branched alkyl sulfate surfactants.
# The surfactant systems in Table 5 are analyzed via DIFT method. Ingredients listed are in ppm concentration as would be common in a detergent wash water solution. Analysis conditions are in water of 34 ppm Calcium/Magnesium water hardness level (3:1 Calcium:Magnesium), 22° C., pH 8-8.5.
# Method: Dynamic Interfacial Tension Analysis. Dynamic Interfacial Tension (DIFT) analysis is performed on a Krüss® DVT30 Drop Volume Tensiometer (Krüss USA, Charlotte, N.C.). The instrument is configured to measure the interfacial tension (IFT) of an ascending oil drop in aqueous detergent (surfactant) phase. The oil used is canola oil (Crisco Pure Canola Oil manufactured by The J.M. Smucker Company). The aqueous detergent and oil phases are temperature controlled at 22° C. (+/−1° C.), via a recirculating water temperature controller attached to the tensiometer. A dynamic interfacial tension curve is generated by dispensing the oil drops into the aqueous detergent phase from an ascending capillary with an internal diameter of 0.2540 mm, over a range of flow rates and measuring the interfacial tension at each flow rate. Data is generated at oil dispensing flow rates of 500 uL/min to 1 uL/min with 2 flow rates per decade on a logarithmic scale (7 flow rates measured in this instance). Interfacial tension is measured on three oil drops per flow rate and then averaged. Interfacial tension is reported in units of mN/m. Surface age of the oil drops at each flow rate is also recorded and plots can be generated either of interfacial tension (y-axis) versus oil flow rate (x-axis) or interfacial tension (y-axis) versus oil drop surface age (x-axis). […] Example of analysis of a 100 ppm surfactant concentration, with water hardness (3:1 Ca:Mg) of 103 ppm, 22° C., pH 8: Density settings for 22° C. are set at 0.916 g/ml for Canola Oil and 0.998 g/ml for aqueous surfactant phase (assumed to be the same as water since dilute solution). To a 100 ml volumetric flask is added 1.00 mL of 1% (wt/wt) Surfactant solution in deionized water and the volumetric is then filled to the mark with […] 3:1 CaCl2:MgCl2 solution and mixed well. The solution is transferred to a beaker and the pH adjusted to 8 by addition of a few drops of 0.1N NaOH or […]. The solution is then loaded into the tensiometer measurement cell and analyzed. Total time from addition of hardness to surfactant and start of analysis is less than 5 minutes.
IFT @ 1 uL/min Oil Flowrate,IFT @ 10 uL/min Oil Flowrate,IFT @ 99 uL/min Oil Flowrate,Structure (SMILES)
0.17 mN/m,0.88 mN/m,4.83 mN/m,"CC(C)CCCC(C)CCCC(C)CCCOS(=O)(=O)[O-].[Na+] (stereo not drawn) [A AS, sodium salt of 4,8,12-trimethyltridecan-1-ol sulfate]"
0.35 mN/m,1.6 mN/m,6.14 mN/m,"CCC(CCCC(C)CCCC(C)C)CCOS(=O)(=O)[O-].[Na+] (stereo not drawn) [B AS, sodium salt of 3-ethyl-7,11-dimethyldodecan-1-ol sulfate]"
